Only the 19 paired bases of each siRNA are shown; overhangs and chemistry are not given here.

In the OligoGym collection one finds target inhibition data, which are given here for 79 substances.
Further: test concentration or dose not given here.

One data set deals with ICAM1. As to the kind of experiment: five studies, different assays. Conditions: siRNA.
On to “sense AACACACAAGCCACGCCUC / antisense GAGGCGUGGCUUGUGUGUU”, for which the target inhibition worked out at 1%.

With “sense AAGGAGUUGCUCCUGCCUG / antisense CAGGCAGGAGCAACUCCUU”, the target inhibition was -15%.

With “sense AAGUCUAGCCUGAUGAGAG / antisense CUCUCAUCAGGCUAGACUU”, the target inhibition came to 50%.

“sense ACACUGCAGGAGAGUGCCU / antisense AGGCACUCUCCUGCAGUGU”: the target inhibition came out at 0%.

As to “sense ACCUCUGUCGGGCCAGGAG / antisense CUCCUGGCCCGACAGAGGU”, the target inhibition was 5%.

For the substance “sense ACGGUGCUGGUGAGGAGAG / antisense CUCUCCUCACCAGCACCGU”, the target inhibition is -20%.

On to “sense AGCUCCUGCUGAAGGCCAC / antisense GUGGCCUUCAGCAGGAGCU”, for which the target inhibition was determined as 10%.

Consider “sense AGUCGACGCUGAGCUCCUC / antisense GAGGAGCUCAGCGUCGACU”, for which the target inhibition came to 0%.

For the substance “sense AGUGAUCCUCCCACCUCAG / antisense CUGAGGUGGGAGGAUCACU”, the target inhibition was 45%.

Take “sense CAUUGGCCAACCUGCCUUU / antisense AAAGGCAGGUUGGCCAAUG”: the target inhibition amounted to 28%.

For “sense CCAACCAAUGUGCUAUUCA / antisense UGAAUAGCACAUUGGUUGG”, the target inhibition is 7%.

On to “sense CCAGACUUCCUUUGUGUUA / antisense UAACACAAAGGAAGUCUGG”, for which the target inhibition stood at 48%.

For “sense CCAGGUCCACCUGGCACUG / antisense CAGUGCCAGGUGGACCUGG”, the target inhibition came out at 21%.

On to “sense CCAUGAAACCGAACACACA / antisense UGUGUGUUCGGUUUCAUGG”, for which the target inhibition was found to be 59%.

On to “sense CCAUGAGGACAUACAACUG / antisense CAGUUGUAUGUCCUCAUGG”, for which the target inhibition was determined as 58%.

Consider “sense CCAUGGUACCUGCACACCU / antisense AGGUGUGCAGGUACCAUGG”, for which the target inhibition stood at 75%.

On to “sense CCUACCAGCUCCAGACCUU / antisense AAGGUCUGGAGCUGGUAGG”, for which the target inhibition came to 45%.

For “sense CCUCUUGGCAGCCAGUGGG / antisense CCCACUGGCUGCCAAGAGG”, the target inhibition was 18%.

For the substance “sense CGGAUGCCAGCUUGGGCAC / antisense GUGCCCAAGCUGGCAUCCG”, the target inhibition stood at 24%.

Consider “sense CUCAGCGGUCAUGUCUGGA / antisense UCCAGACAUGACCGCUGAG”, for which the target inhibition turned out to be 33%.

As to “sense GACGUGUGCAGUAAUACUG / antisense CAGUAUUACUGCACACGUC”, the target inhibition was 30%.

On to “sense GAUUCUGACGAAGCCAGAG / antisense CUCUGGCUUCGUCAGAAUC”, for which the target inhibition was -10%.

In the case of “sense GCCACACUGAACAGAGUGG / antisense CCACUCUGUUCAGUGUGGC”, the target inhibition came out at 21%.

As for “sense GCUCAAGUGUCUAAAGGAU / antisense AUCCUUUAGACACUUGAGC”, the target inhibition stood at 40%.

Take “sense GGAGCUUCGUGUCCUGUAU / antisense AUACAGGACACGAAGCUCC”: the target inhibition came to 58%.

As for “sense GGAUGCCAGCUUGGGCACU / antisense AGUGCCCAAGCUGGCAUCC”, the target inhibition amounted to 40%.

As for “sense GGGACAGGGCCUCUUCCUC / antisense GAGGAAGAGGCCCUGUCCC”, the target inhibition was determined as 52%.

As to “sense GGGCAUUGUCCUCAGUCAG / antisense CUGACUGAGGACAAUGCCC”, the target inhibition stood at 62%.

For the substance “sense GGUCCUAGAGGUGGACACG / antisense CGUGUCCACCUCUAGGACC”, the target inhibition is 10%.

“sense GGUCUCUGGCCUCACGGAG / antisense CUCCGUGAGGCCAGAGACC”: the target inhibition came to 7%.

As to “sense GUCAUCAUCACUGUGGUAG / antisense CUACCACAGUGAUGAUGAC”, the target inhibition amounted to 35%.

For “sense UAGGCUCACAACACCACAC / antisense GUGUGGUGUUGUGAGCCUA”, the target inhibition was determined as 41%.

For the substance “sense UAUUGGGUAUGCUGAGGCC / antisense GGCCUCAGCAUACCCAAUA”, the target inhibition was found to be 43%.

For the substance “sense UCACAGGUUCAGAGAUUAC / antisense GUAAUCUCUGAACCUGUGA”, the target inhibition amounted to 34%.

Take “sense UCAGAGUUGCAACCUCAGC / antisense GCUGAGGUUGCAACUCUGA”: the target inhibition was 1%.

Turning to “sense UCCAUAGACAUGUGUAGCA / antisense UGCUACACAUGUCUAUGGA”, the target inhibition worked out at 63%.

In the case of “sense UGAACCUAUCCCGGGACAG / antisense CUGUCCCGGGAUAGGUUCA”, the target inhibition worked out at 20%.

In the case of “sense UGACGGAUGCCAGCUUGGG / antisense CCCAAGCUGGCAUCCGUCA”, the target inhibition was found to be 29%.

“sense UGUGUGUGUGUGUAUGUGU / antisense ACACAUACACACACACACA”: the target inhibition worked out at 7%.

For “sense UUGCACUAUUGCAGCUCCA / antisense UGGAGCUGCAAUAGUGCAA”, the target inhibition is 5%.

Another data set addresses PTEN. As to the kind of experiment: five studies, different assays. Conditions: siRNA.
Regarding “sense AAAGGUGAAGAUAUAUUCC / antisense GGAAUAUAUCUUCACCUUU”, the target inhibition is 9%.

“sense AAGAAACACAGCAACAAUG / antisense CAUUGUUGCUGUGUUUCUU”: the target inhibition worked out at 30%.

On to “sense AAGAAUGGGCUUGAAACAU / antisense AUGUUUCAAGCCCAUUCUU”, for which the target inhibition is 40%.

As for “sense AAGUAAGGACCAGAGACAA / antisense UUGUCUCUGGUCCUUACUU”, the target inhibition is 75%.

Take “sense ACCAUCUCCAGCUAUUUAC / antisense GUAAAUAGCUGGAGAUGGU”: the target inhibition is 6%.

For the substance “sense AGUGAAUCUGUAUUGGGGU / antisense ACCCCAAUACAGAUUCACU”, the target inhibition stood at 39%.

Turning to “sense AUAAAGACAAAGCCAACCG / antisense CGGUUGGCUUUGUCUUUAU”, the target inhibition turned out to be 0%.

As for “sense AUACAGGAACAAUAUUGAU / antisense AUCAAUAUUGUUCCUGUAU”, the target inhibition is 49%.

“sense CAAAUCCAGAGGCUAGCAG / antisense CUGCUAGCCUCUGGAUUUG”: the target inhibition was 44%.

For “sense CACUGACUCUGAUCCAGAG / antisense CUCUGGAUCAGAGUCAGUG”, the target inhibition came out at 15%.

For “sense CAGUCAGAGGCGCUAUGUG / antisense CACAUAGCGCCUCUGACUG”, the target inhibition was determined as 73%.

“sense CCUGUGAGCAGCCGCGGGG / antisense CCCCGCGGCUGCUCACAGG”: the target inhibition turned out to be 25%.

Turning to “sense CCUUUUGUGAAGAUCUUGA / antisense UCAAGAUCUUCACAAAAGG”, the target inhibition came out at 73%.

With “sense CUCAGAAAGGAAAUAAUUU / antisense AAAUUAUUUCCUUUCUGAG”, the target inhibition came out at 30%.

“sense CUCUGGCUGCUGAGGAGAA / antisense UUCUCCUCAGCAGCCAGAG”: the target inhibition came to 52%.

As to “sense CUUCCUCGGCUUCUCCUGA / antisense UCAGGAGAAGCCGAGGAAG”, the target inhibition is 62%.

In the case of “sense CUUGACCUAUAUUUAUCCA / antisense UGGAUAAAUAUAGGUCAAG”, the target inhibition was 48%.

Regarding “sense GAGGCAGCCGUUCGGAGGA / antisense UCCUCCGAACGGCUGCCUC”, the target inhibition was 58%.

For “sense GCACAUCCAGGGACCCGGG / antisense CCCGGGUCCCUGGAUGUGC”, the target inhibition worked out at 32%.

With “sense GCGGCGGCGGCACCUCCCG / antisense CGGGAGGUGCCGCCGCCGC”, the target inhibition came out at 20%.

Regarding “sense GCGGUCCAGAGCCAAGCGG / antisense CCGCUUGGCUCUGGACCGC”, the target inhibition amounted to 31%.

Take “sense GCUACAGUUAUUAAUCUGG / antisense CCAGAUUAAUAACUGUAGC”: the target inhibition stood at 37%.

For “sense GGGACGAACUGGUGUAAUG / antisense CAUUACACCAGUUCGUCCC”, the target inhibition came out at 75%.

Regarding “sense GGGUAAAUACAUUCUUCAU / antisense AUGAAGAAUGUAUUUACCC”, the target inhibition came out at 70%.

As to “sense GGUCCCGUCCGCCUCUCGC / antisense GCGAGAGGCGGACGGGACC”, the target inhibition worked out at 0%.

As to “sense GGUCUUCCGAGGCGCCCGG / antisense CCGGGCGCCUCGGAAGACC”, the target inhibition came out at 0%.

“sense UAAAACACCAUGAAAAUAA / antisense UUAUUUUCAUGGUGUUUUA”: the target inhibition was 58%.

In the case of “sense UCAAAGUAGAGUUCUUCCA / antisense UGGAAGAACUCUACUUUGA”, the target inhibition came out at 30%.

As to “sense UCCACAGGGUUUUGACACU / antisense AGUGUCAAAACCCUGUGGA”, the target inhibition worked out at 45%.

In the case of “sense UCUCGGAAGCUGCAGCCAU / antisense AUGGCUGCAGCUUCCGAGA”, the target inhibition is 40%.

With “sense UCUGUCACCAACUGAAGUG / antisense CACUUCAGUUGGUGACAGA”, the target inhibition was determined as 25%.

On to “sense UGACACCGCCAAAUUUAAU / antisense AUUAAAUUUGGCGGUGUCA”, for which the target inhibition turned out to be 65%.

“sense UUACCAGUUAUAGGAACAA / antisense UUGUUCCUAUAACUGGUAA”: the target inhibition came out at 40%.

On to “sense UUCCCGUUUUAUUCCAGUU / antisense AACUGGAAUAAAACGGGAA”, for which the target inhibition was 38%.

Turning to “sense UUCCGAAAGGUUUUGCUAC / antisense GUAGCAAAACCUUUCGGAA”, the target inhibition stood at 32%.

As for “sense UUUCCAUCCUGCAGAAGAA / antisense UUCUUCUGCAGGAUGGAAA”, the target inhibition stood at 27%.

The next data set addresses placental-type alkaline phosphatase. The data set can be described thus: five studies, different assays. The conditions noted are these: siRNA.
With “sense ACAGACAGCCGCCAAGAAC / antisense GUUCUUGGCGGCUGUCUGU”, the target inhibition amounted to 54.7%.

For the substance “sense ACCUCAUCAUCUUCCUGGG / antisense CCCAGGAAGAUGAUGAGGU”, the target inhibition came to 49%.

For the substance “sense AGGAGAACCCGGACUUCUG / antisense CAGAAGUCCGGGUUCUCCU”, the target inhibition is 81%.
